Test results: EPA's ToxRefDB 2

Experiments:
[1] = test system: rat; settings: Chronic toxicity, sprague dawley, Oral, Feed, dose end: 104 week, group: systemic
[2] = test system: rat; settings: Prenatal developmental toxicity study, sprague dawley, Oral, Gavage/Intubation, dose end: 15 GD
[3] = test system: mouse; settings: Carcinogenicity, cd1, Oral, Feed, dose end: 104 week, group: systemic
[4] = test system: rat; settings: Subchronic oral toxicity in rodents, sprague dawley, Feed, dose end: 90 day, group: systemic, systemic / organ weight / liver / absolute + systemic / organ weight / liver / relative to body weight + systemic / pathology microscopic / …
[5] = test system: rat; settings: Multigenerational reproductive toxicity study, sprague dawley, Oral, Feed, dose end: 2 generation
[6] = test system: rabbit; settings: Prenatal developmental toxicity study, new zealand white, Oral, Gavage/Intubation, dose end: 19 GD
[7] = test system: rat; settings: Prenatal developmental toxicity study, sprague dawley, Oral, Gavage/Intubation, dose end: 15 GD; remark: listed apart in the source
[8] = test system: dog; settings: Chronic toxicity, beagle, Oral, Capsule, dose end: 52 week, group: systemic
[9] = test system: rat; settings: Combined chronic toxicity/carcinogenicity, sprague dawley, Oral, Feed, dose end: 104 week, group: systemic
[10] = test system: mouse; settings: Carcinogenicity; cd1; Oral; Feed; dose end: 104 week; group: systemic; systemic / organ weight / liver / relative to body weight + systemic / pathology gross / liver / discolored + systemic / pathology …
[11] = test system: dog; settings: Subchronic oral toxicity in nonrodent, beagle, Capsule, dose end: 90 day, group: systemic, systemic / clinical chemistry / alkaline phosphatase (alp/alk) / alkaline phosphatase (alp/alk) + systemic / organ weight / liver / relative…
[12] = test system: rat; settings: Combined chronic toxicity/carcinogenicity, sprague dawley, Dermal, Topical, dose end: 24 month, group: systemic
[13] = test system: rat; settings: Subchronic oral toxicity in rodents, sprague dawley, Feed, dose end: 14 week, group: systemic
[14] = systemic / pathology microscopic / testes / atrophy
[15] = systemic / pathology microscopic / testes / atrophy + systemic / organ weight / epididymis / relative to body weight + systemic / organ …
[16] = group: developmental, developmental / developmental malformation / bone / incomplete ossification
[17] = group: maternal, systemic / in life observation / body weight / body weight + systemic / in life observation / clinical signs / ataxia + systemic / in life …
[18] = systemic / pathology microscopic / liver / pigmentation + systemic / pathology microscopic / liver / vacuolization
[19] = systemic / pathology microscopic / liver / pigmentation + systemic / pathology microscopic / liver / vacuolization + systemic / pathology …
[20] = group: offspring, systemic / in life observation / body weight / offspring (pup) weight gain + developmental / developmental landmark / eye opening / eye …
[21] = group: parental, systemic / pathology microscopic / liver / fatty change
[22] = group: parental, systemic / pathology microscopic / liver / fatty change + systemic / in life observation / body weight / body weight + systemic / in life …
[23] = group: reproductive, reproductive / offspring survival early / litter size / litter size
[24] = group: developmental, developmental / developmental malformation / bone / absent + developmental / developmental malformation / bone / fused + developmental / …
[25] = group: maternal, systemic / in life observation / food consumption / food consumption + systemic / pathology microscopic / liver / apoptosis + systemic / …
[26] = group: developmental, developmental / developmental malformation / bone / delayed ossification + developmental / developmental malformation / bone / incomplete …
[27] = group: maternal, systemic / in life observation / body weight / body weight gain + systemic / in life observation / clinical signs / urogenital staining + …
[28] = systemic / clinical chemistry / glucose / glucose
[29] = systemic / pathology microscopic / liver / dilatation + systemic / pathology microscopic / liver / inflammation + systemic / pathology …
[30] = systemic / pathology microscopic / skin / hyperkeratosis
[31] = systemic / pathology microscopic / skin / hyperkeratosis + systemic / pathology microscopic / skin / acanthosis + systemic / clinical …
[32] = systemic / in life observation / body weight / body weight + systemic / in life observation / body weight / body weight gain + systemic / …

O=[N+]([O-])c1cc(C(F)(F)F)c(Cl)c([N+](=O)[O-])c1Nc1ncc(C(F)(F)F)cc1Cl [Fluazinam]
LOAEL [1, 14]: 3.9 mg/kg/day
LEL [1, 15]: 3.9 mg/kg/day
NEL [1, 15]: 1.9 mg/kg/day
NOAEL [1, 15]: 1.9 mg/kg/day
LEL [2, 16]: 100 mg/kg/day
LOAEL [2, 16]: > 1000 mg/kg/day
NEL [2, 16]: 10 mg/kg/day
NOAEL [2, 16]: ≥ 1000 mg/kg/day
LEL [2, 17]: 1000 mg/kg/day
LOAEL [2, 17]: > 1000 mg/kg/day
NEL [2, 17]: 100 mg/kg/day
NOAEL [2, 17]: ≥ 1000 mg/kg/day
LEL [3, 18]: 10.7 mg/kg/day
LOAEL [3, 18]: 10.7 mg/kg/day
NEL [3, 19]: 1.12 mg/kg/day
NOAEL [3, 19]: 1.12 mg/kg/day
LEL [4]: 38 mg/kg/day
LOAEL [4]: 38 mg/kg/day
NEL [4]: 3.8 mg/kg/day
NOAEL [4]: 3.8 mg/kg/day
LOAEL ([5]; group: offspring, systemic / in life observation / body weight / offspring (pup) weight gain): 47.3 mg/kg/day
LEL [5, 20]: 47.3 mg/kg/day
NEL [5, 20]: 9.7 mg/kg/day
NOAEL [5, 20]: 9.7 mg/kg/day
LEL [5, 21]: 9.7 mg/kg/day
LOAEL [5, 21]: 9.7 mg/kg/day
NEL [5, 22]: 1.9 mg/kg/day
NOAEL [5, 22]: 1.9 mg/kg/day
LEL [5, 23]: 47.3 mg/kg/day
LOAEL [5, 23]: 47.3 mg/kg/day
NEL [5, 23]: 9.7 mg/kg/day
NOAEL [5, 23]: 9.7 mg/kg/day
LEL [6, 24]: 12 mg/kg/day
LOAEL [6, 24]: 12 mg/kg/day
NEL [6, 24]: 7 mg/kg/day
NOAEL [6, 24]: 7 mg/kg/day
LEL ([6]; group: maternal, reproductive / reproductive performance / aborted / aborted): 4 mg/kg/day
LOAEL [6, 25]: 7 mg/kg/day
NEL [6, 25]: 2 mg/kg/day
NOAEL [6, 25]: 4 mg/kg/day
LOAEL [7, 26]: 250 mg/kg/day
NEL [7, 26]: 10 mg/kg/day
NOAEL [7, 26]: 50 mg/kg/day
LEL ([7]; group: developmental, developmental / developmental malformation / bone / full supernumerary): 50 mg/kg/day
LEL [7, 27]: 250 mg/kg/day
LOAEL [7, 27]: 250 mg/kg/day
NEL [7, 27]: 50 mg/kg/day
NOAEL [7, 27]: 50 mg/kg/day
LEL [8, 28]: 1 mg/kg/day
NEL [8, 28]: < 1 mg/kg/day
LOAEL ([8]; systemic / in life observation / clinical signs / nasal dryness + systemic / pathology microscopic / stomach / hyperplasia): 10 mg/kg/day
NOAEL ([8]; systemic / in life observation / clinical signs / nasal dryness + systemic / pathology microscopic / stomach / hyperplasia + systemic / …): 1 mg/kg/day
LOAEL [9, 29]: 3.8 mg/kg/day
NOAEL [9, 29]: 0.38 mg/kg/day
LEL [9, 14]: 0.04 mg/kg/day
NEL [9, 14]: < 0.04 mg/kg/day
LEL [10]: 126 mg/kg/day
LOAEL [10]: 126 mg/kg/day
NEL [10]: < 126 mg/kg/day
NOAEL [10]: < 126 mg/kg/day
LEL [11]: 100 mg/kg/day
LOAEL [11]: 100 mg/kg/day
NEL [11]: 10 mg/kg/day
NOAEL [11]: 10 mg/kg/day

CCC(C)OC(=O)N1CCCCC1CCO (configuration not stated) [Icaridin]
LEL [12, 30]: 50 mg/kg/day
NEL [12, 30]: < 50 mg/kg/day
LOAEL [12, 31]: > 200 mg/kg/day
NOAEL [12, 31]: ≥ 200 mg/kg/day
LOAEL [13, 32]: 1030 mg/kg/day
NEL [13, 32]: 100 mg/kg/day
NOAEL [13, 32]: 301 mg/kg/day
LEL ([13]; systemic / organ weight / kidney / relative to body weight + systemic / clinical chemistry / alanine aminotransferase (alt/sgpt) / alanine …): 149 mg/kg/day
